Experimental data: patent publication US12064438B2, “Pharmaceutical preparation excellent in light stability and dissolution property” (priority 2017, dated 2024)

What was measured:
influenza virus [1] = assay: Clinical test: randomized, placebo-controlled, double-blind study, time to alleviation of influenza symptoms (10, 20, 40 mg); format: in vivo, human
[2] = for Adverse events the causal relationship of which cannot be denied, number of episodes: Compound II-6 610 patients, Oseltamivir 513 patients; for Adverse events the causal relationship of which cannot be denied, proportion of patients: Compound II-6 single 40 or 80 mg, Oseltamivir 75 mg twice a day for 5 days
Source text: The number of side-effect episodes and the number of patients with side effect were counted for each administration group.

influenza virus [3] = format: in vivo, human; details: 20 to younger than 65 years old, Compound II-6 single 40 or 80 mg, Oseltamivir 75 mg twice a day for 5 days
[4] = single oral 20 mg, Cox proportional hazard model relative to placebo
[5] = single oral 40 mg, baseline symptom moderate or severe

SMILES | Time until muscular or joint pain symptom is alleviated, Hazard ratio (influenza virus [1]; single oral 10 mg, Cox proportional hazard model relative to placebo) | Time to alleviation of influenza symptoms, Hazard ratio (influenza virus [1]; [4]) | Time until nasal congestion symptom is alleviated, Hazard ratio (influenza virus [1]; [4]) | median time until muscular or joint pain was improved, shorter in the 40 mg administered group than the placebo group (influenza virus [1]; single oral 40 mg) [h] | median time until nasal congestion was improved, shorter in the 40 mg administered group than the placebo group (influenza virus [1]; single oral 40 mg) [h] | Time until feverishness or chills symptom is alleviated, Hazard ratio (influenza virus [1]; single oral 40 mg, Cox proportional hazard model relative to placebo) | Time until muscular or joint pain symptom is alleviated, Difference from placebo (influenza virus [1]; [5]) [h] | Time until nasal congestion symptom is alleviated, Difference from placebo (influenza virus [1]; [5]) [h] | Adverse events the causal relationship of which cannot be denied, number of episodes [2] [episodes] | Adverse events the causal relationship of which cannot be denied, proportion of patients [2] [%] | Severe adverse events the causal relationship of which cannot be denied ([2]; human, in vivo) | time to termination of viral shedding based on virus titer (influenza virus [3]) [h] | Amount of change in virus titer from baseline, Mean (influenza virus [3]; Day 5)
COC(=O)OCOc1c2n(ccc1=O)N([C@@H]1c3ccccc3SCc3c1ccc(F)c3F)[C@@H]1COCCN1C2=O [Compound II-6] | 0.77 | 0.81 | 0.59 | 16.4 | 21.0 | 0.71 | -16.4 | -21 | 37 | 4.4 | not reported | 24.0 | −4.95 log10 [TCID50/mL]
CCOC(=O)C1=C[C@@H](OC(CC)CC)[C@H](NC(C)=O)[C@@H](N)C1 [Oseltamivir, reference compound] | – | – | – | – | – | – | – | – | 53 | 8.4 | – | 72.0 | –
